From ChEMBL document CHEMBL5715954, “Silencing c-Myc translation as a therapeutic strategy through targeting PI3Kδ and CK1ε in hematological malignancies” (Blood, 2017)

What was measured:
Design in all cases: scale not given: the % may be the effect or the level left
[1] = molecular target: Calcium/calmodulin-dependent protein kinase type II subunit beta (Homo sapiens) (UniProt Q13554); experiment: Inhibition of human CAMK2b assessed as enzyme activity at 1 uM using KKALRRQETVDAL as substrate preincubated for 20 mins followed by [gamma-33P]-ATP addition and measured after 120 mins by radiometric Hot-SpotSM Kinase assay relative to control
[2] = molecular target: T1, Serine/threonine-protein kinase ULK2 (Homo sapiens) (UniProt Q8IYT8); experiment: Inhibition of human ULK2 assessed as enzyme activity at 1 uM using myelin basic protein as substrate preincubated for 20 mins followed by [gamma-33P]-ATP addition and measured after 120 mins by radiometric Hot-SpotSM Kinase assay relative to control
T1 sequence (whole entry): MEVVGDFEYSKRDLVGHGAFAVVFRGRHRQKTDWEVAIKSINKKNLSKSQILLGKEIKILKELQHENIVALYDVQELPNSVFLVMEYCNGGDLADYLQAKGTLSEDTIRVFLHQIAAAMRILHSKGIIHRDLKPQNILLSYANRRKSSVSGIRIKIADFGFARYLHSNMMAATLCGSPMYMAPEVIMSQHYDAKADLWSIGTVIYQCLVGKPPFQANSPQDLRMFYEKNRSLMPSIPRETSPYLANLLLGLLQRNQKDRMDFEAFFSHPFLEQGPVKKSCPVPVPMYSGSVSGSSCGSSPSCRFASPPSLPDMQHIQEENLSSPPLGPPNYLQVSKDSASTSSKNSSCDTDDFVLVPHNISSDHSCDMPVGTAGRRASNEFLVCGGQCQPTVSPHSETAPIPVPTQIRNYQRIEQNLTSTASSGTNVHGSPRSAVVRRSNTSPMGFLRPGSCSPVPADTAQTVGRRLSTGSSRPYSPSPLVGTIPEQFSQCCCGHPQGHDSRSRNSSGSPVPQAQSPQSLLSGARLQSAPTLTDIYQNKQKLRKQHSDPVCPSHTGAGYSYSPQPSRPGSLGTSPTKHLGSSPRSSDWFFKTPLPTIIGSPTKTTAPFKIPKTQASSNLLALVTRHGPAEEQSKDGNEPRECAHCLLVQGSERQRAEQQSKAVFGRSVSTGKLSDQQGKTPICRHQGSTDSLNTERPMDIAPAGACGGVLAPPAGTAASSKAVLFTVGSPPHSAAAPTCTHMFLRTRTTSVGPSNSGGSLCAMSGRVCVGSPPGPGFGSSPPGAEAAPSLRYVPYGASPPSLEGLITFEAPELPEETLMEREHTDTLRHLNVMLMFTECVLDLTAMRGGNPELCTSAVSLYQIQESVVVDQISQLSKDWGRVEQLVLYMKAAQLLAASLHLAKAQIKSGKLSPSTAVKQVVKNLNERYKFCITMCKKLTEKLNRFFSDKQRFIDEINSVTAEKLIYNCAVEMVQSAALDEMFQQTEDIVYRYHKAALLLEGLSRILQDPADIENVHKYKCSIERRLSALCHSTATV

[3] = molecular target: T2, Serine/threonine-protein kinase Sgk3 (Homo sapiens) (UniProt Q96BR1); experiment: Inhibition of human SGK3 assessed as enzyme activity at 1 uM using GRPRTSSFAEG as substrate preincubated for 20 mins followed by [gamma-33P]-ATP addition and measured after 120 mins by radiometric Hot-SpotSM Kinase assay relative to control
T2 sequence (whole entry): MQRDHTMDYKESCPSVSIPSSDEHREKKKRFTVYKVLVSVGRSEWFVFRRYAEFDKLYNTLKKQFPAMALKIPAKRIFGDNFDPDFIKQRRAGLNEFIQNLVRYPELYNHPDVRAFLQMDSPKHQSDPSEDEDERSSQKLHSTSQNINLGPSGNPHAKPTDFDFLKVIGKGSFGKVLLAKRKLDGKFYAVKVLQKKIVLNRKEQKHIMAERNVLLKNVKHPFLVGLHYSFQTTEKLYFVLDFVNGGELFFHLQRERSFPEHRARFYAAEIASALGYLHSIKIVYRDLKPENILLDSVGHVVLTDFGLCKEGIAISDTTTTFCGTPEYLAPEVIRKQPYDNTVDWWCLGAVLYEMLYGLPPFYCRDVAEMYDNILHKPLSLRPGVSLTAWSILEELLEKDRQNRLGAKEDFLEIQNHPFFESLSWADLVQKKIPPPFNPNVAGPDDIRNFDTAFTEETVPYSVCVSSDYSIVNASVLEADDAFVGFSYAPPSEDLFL

[4] = molecular target: CDK2/Cyclin O (Homo sapiens) (UniProt P24941+P22674); experiment: Inhibition of human CDK2/cyclin O assessed as enzyme activity at 1 uM using Histone H1 as substrate preincubated for 20 mins followed by [gamma-33P]-ATP addition and measured after 120 mins by radiometric Hot-SpotSM Kinase assay relative to control; assay type: protein-complex assay
[5] = molecular target: Mitogen-activated protein kinase 9 (Homo sapiens) (UniProt P45984); experiment: Inhibition of human JNK2-alpha2 assessed as enzyme activity at 1 uM using ATF2 as substrate preincubated for 20 mins followed by [gamma-33P]-ATP addition and measured after 120 mins by radiometric Hot-SpotSM Kinase assay relative to control
[6] = molecular target: Mitogen-activated protein kinase kinase kinase 10 (Homo sapiens) (UniProt Q02779); experiment: Inhibition of human MLK2 assessed as enzyme activity at 1 uM using myelin basic protein as substrate preincubated for 20 mins followed by [gamma-33P]-ATP addition and measured after 120 mins by radiometric Hot-SpotSM Kinase assay relative to control
[7] = molecular target: Serine/threonine-protein kinase pim-3 (Homo sapiens) (UniProt Q86V86); experiment: Inhibition of human PIM3 assessed as enzyme activity at 1 uM using RSRHSSYPAGT as substrate preincubated for 20 mins followed by [gamma-33P]-ATP addition and measured after 120 mins by radiometric Hot-SpotSM Kinase assay relative to control

Calcium/calmodulin-dependent protein kinase type II subunit beta (Homo sapiens), sequence (Q13554 whole entry): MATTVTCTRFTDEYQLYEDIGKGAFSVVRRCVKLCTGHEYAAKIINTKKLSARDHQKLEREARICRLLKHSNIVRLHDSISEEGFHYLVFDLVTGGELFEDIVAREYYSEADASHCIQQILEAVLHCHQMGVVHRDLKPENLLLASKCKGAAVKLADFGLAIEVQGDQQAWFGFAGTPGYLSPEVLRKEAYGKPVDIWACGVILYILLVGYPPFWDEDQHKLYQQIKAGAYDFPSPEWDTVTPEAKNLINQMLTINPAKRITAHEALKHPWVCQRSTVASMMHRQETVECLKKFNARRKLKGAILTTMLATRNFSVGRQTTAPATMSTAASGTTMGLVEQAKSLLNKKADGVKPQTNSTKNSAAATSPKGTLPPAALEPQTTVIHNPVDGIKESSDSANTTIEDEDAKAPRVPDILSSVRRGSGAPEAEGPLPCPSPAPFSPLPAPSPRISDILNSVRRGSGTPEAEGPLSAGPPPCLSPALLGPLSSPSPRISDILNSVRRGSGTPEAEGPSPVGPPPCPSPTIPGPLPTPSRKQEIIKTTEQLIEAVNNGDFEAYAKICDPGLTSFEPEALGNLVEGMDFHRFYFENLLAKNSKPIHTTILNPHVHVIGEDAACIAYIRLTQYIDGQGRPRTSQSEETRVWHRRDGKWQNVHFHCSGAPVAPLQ
Mitogen-activated protein kinase 9 (Homo sapiens), sequence (P45984 whole entry, looked up): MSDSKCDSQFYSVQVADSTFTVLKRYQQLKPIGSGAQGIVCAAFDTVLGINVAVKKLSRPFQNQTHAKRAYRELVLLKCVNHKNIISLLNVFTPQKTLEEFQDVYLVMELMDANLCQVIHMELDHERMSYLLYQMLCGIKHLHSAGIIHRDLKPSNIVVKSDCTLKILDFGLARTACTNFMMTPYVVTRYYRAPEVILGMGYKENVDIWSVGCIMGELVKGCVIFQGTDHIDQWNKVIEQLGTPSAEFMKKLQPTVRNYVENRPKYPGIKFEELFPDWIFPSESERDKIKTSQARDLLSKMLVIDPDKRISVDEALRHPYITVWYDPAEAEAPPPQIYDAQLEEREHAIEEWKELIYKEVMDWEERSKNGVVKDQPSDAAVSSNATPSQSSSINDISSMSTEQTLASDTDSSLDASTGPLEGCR
Mitogen-activated protein kinase kinase kinase 10 (Homo sapiens), sequence (Q02779 whole entry, looked up): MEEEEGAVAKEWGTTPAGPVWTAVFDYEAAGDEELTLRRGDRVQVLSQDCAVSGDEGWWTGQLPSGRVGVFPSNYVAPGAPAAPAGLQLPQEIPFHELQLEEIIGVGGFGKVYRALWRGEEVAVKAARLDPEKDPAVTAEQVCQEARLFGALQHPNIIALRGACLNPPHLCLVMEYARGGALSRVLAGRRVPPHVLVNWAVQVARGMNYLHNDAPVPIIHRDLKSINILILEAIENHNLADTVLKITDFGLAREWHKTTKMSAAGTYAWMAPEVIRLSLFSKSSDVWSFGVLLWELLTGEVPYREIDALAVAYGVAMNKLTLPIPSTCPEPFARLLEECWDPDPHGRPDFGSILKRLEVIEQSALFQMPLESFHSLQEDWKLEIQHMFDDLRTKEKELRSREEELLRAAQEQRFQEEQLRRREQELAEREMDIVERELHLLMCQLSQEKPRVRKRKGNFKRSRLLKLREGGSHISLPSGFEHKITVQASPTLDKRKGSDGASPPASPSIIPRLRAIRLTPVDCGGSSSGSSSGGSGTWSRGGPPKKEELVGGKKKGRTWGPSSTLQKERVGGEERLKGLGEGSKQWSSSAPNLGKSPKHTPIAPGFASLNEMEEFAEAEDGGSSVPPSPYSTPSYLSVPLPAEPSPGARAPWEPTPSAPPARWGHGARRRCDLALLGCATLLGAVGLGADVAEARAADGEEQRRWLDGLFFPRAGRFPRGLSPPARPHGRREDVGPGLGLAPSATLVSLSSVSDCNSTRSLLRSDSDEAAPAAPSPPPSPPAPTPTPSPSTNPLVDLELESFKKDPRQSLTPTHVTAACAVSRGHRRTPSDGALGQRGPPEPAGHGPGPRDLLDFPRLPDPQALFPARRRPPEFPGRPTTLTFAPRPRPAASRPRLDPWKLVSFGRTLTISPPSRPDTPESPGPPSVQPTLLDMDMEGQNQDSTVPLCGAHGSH

SMILES | Activity [1] [%] | Activity [2] [%] | Activity [3] [%] | Activity [4] [%] | Activity [5] [%] | Activity [6] [%] | Activity [7] [%]
CC[C@H](Nc1ncnc2[nH]cnc12)c1nc2cccc(F)c2c(=O)n1-c1ccccc1 | 96.2 | 89.3 | 97.2 | 92.8 | 96.8 | 112 | 104
CC(C)Oc1ccc(-c2nn([C@@H](C)c3oc4ccc(F)cc4c(=O)c3-c3cccc(F)c3)c3ncnc(N)c23)cc1F [UMBRALISIB] | 92.3 | 101 | 98.7 | 92.9 | 97.3 | 108 | 102
C[C@H](Nc1ncnc2nc[nH]c12)c1cc2cccc(Cl)c2c(=O)n1-c1ccccc1 | 95.8 | 98.4 | 97.3 | 90.7 | 97.8 | 103 | 95.4
